Results on seven compounds are retold here after the supplement of paper PMC11061612.

Experiment [1] deals with KYSE-220 (Esophageal Squamous Cell Carcinoma). Kind of experiment: combination Emax (second highest fraction inhibited in the dose matrix, 72 h); higher = more inhibition; extreme values may be limits of the assay. In short, it runs like this: (§1)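 Cell lines in DMEM/F12 or RPMI with 10% FBS were plated in 1536-well plates, held 24 hours at 37°C, 5% CO2, then given two-drug dose matrices for 72 hours (DMSO typically 0.2%). Viability was read by CellTiter-Glo 2.0 luminescence and scaled as inhibition from 0 (vehicle wells) to 1 (blank wells). Combination Emax is the second-highest inhibition in the matrix; Bliss excess is observed combination effect minus expected EA + EB − EA·EB, EA and EB being single-agent effects.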

The subject of experiment [2] is 22RV1 (Prostate Carcinoma). The experiment is described as above. The essentials: as §1
The test system of experiment [3] is HCC70 (Breast Carcinoma). The experiment is described as above. In short, it runs like this:
as §1

Experiment [4] relates to JHU-022 (Oral Cavity Carcinoma). Kind of experiment: Bliss excess, mean over the matrix (fraction); higher = more synergy. The essentials: as §1
For experiment [5], the system named is KYSE-220 (Esophageal Squamous Cell Carcinoma). The description is as above. The essentials:
as §1

In experiment [6] the test system is JHH-2 (Hepatocellular Carcinoma). Described as above. In short, it runs like this:
as §1

For experiment [7], the system named is UACC-812 (Breast Carcinoma). The experiment is described as above. In short, it runs like this:
as §1

The test system of experiment [8] is SW620 (Colorectal Carcinoma). The experiment is described as above. The essentials:
as §1

Experiment [9] concerns NCI-H441 (Lung Adenocarcinoma). The description is as above. In short, it runs like this:
as §1

Experiment [10] relates to 22RV1 (Prostate Carcinoma). The experiment is described as above. The essentials:
as §1

Experiment [11] concerns NCI-H1651 (Lung Adenocarcinoma). The description is as above. In short, it runs like this:
as §1

The subject of experiment [12] is MHH-ES-1 (Ewing's Sarcoma). The experiment is described as above. The essentials:
as §1

In experiment [13] the test system is HCC1395 (Breast Carcinoma). Described as above. In short, it runs like this:
as §1

Experiment [14] has as its system NCI-H2087 (Lung Adenocarcinoma). The description is as above. The essentials:
as §1

In the next experiment the test system is EW-7 (Ewing's Sarcoma). The description is as above. In short, it runs like this: as §1
The test system of a further experiment is EB2 (Burkitt's Lymphoma). The description is as above. In short, it runs like this: as §1
Experiment [15] relates to NCI-H1703 (Squamous Cell Lung Carcinoma). Described as above. In short, it runs like this:
as §1

The test system of experiment [16] is HCC70 (Breast Carcinoma). Described as above. In short, it runs like this: as §1
In the next experiment the test system is PEO1 (Ovarian Carcinoma). The experiment is described as above. In short, it runs like this: as §1
For another experiment, the system named is WM1552C (Melanoma). Described as above. The essentials: as §1

Consider `CN(CCO)CC[C@H](CSc1ccccc1)Nc1ccc(S(=O)(=O)NC(=O)c2ccc(N3CCC([C@@H](O)c4ccccc4-c4ccc(Cl)cc4)CC3)cc2)cc1S(=O)(=O)C(F)(F)F` [AZD4320] + C[C@@H](Nc1cc(F)cc(F)c1)c1cc(C(=O)N(C)C)cc2c(=O)cc(N3CCOCC3)oc12 [AZD8186] (first compound max 1 µM, 7x7, partner max 3 µM), for which the “combination Emax” value in [1] is 0.35; in experiment [2] it was 0.456; with HCC70 (Breast Carcinoma) [3], 0.781. Also, the Bliss excess in experiment [4] is -0.0104; in [5], -0.0227; in experiment [6], -0.0485; in [7], 0.0063; in experiment [8], -0.0141; in experiment [9], -0.0528. For the same compound, the Bliss excess in [10] was -0.0076; in experiment [11], -0.0074; in [12] it was 0.01; in experiment [13] it was 0.0463; in [14] it was -0.0271; in the experiment on EW-7 (Ewing's Sarcoma), -0.014. The Bliss excess is -0.0196 with EB2 (Burkitt's Lymphoma); 0.0398 in experiment [15]; 0.0803 in the experiment with HCC70 (Breast Carcinoma) [16]; -0.0468 with PEO1 (Ovarian Carcinoma); 0.0104 in the experiment on WM1552C (Melanoma).

For the compound `CN(CCO)CC[C@H](CSc1ccccc1)Nc1ccc(S(=O)(=O)NC(=O)c2ccc(N3CCC([C@@H](O)c4ccccc4-c4ccc(Cl)cc4)CC3)cc2)cc1S(=O)(=O)C(F)(F)F` [AZD4320] + Cc1cc2ncnn2cc1Nc1ncc2c(n1)n(C1CCOCC1)c(=O)n2C [AZD7648] (first compound max 1 µM, 7x7, partner max 10 µM), the “combination Emax” value in experiment [1] is 0.11; in [2], 0.426; with HCC70 (Breast Carcinoma) [3], 0.356. The Bliss excess in [4] was -0.0477; in experiment [5], -0.0165; in [6], -0.02; in [7] it was -0.0342; in experiment [8], -0.0309; in experiment [9], -0.043. Also, the Bliss excess in experiment [10] was -0.0532; in experiment [11], -0.0454; in experiment [12] it was -0.0097; in experiment [13], -0.037; in experiment [14] it was -0.0145; in the experiment on EW-7 (Ewing's Sarcoma) it was 0.0633. Also, the Bliss excess in the experiment with EB2 (Burkitt's Lymphoma) was 0.007; in [15], -0.0096; with HCC70 (Breast Carcinoma) [16] it was -0.01; with PEO1 (Ovarian Carcinoma), -0.0389; in the experiment on WM1552C (Melanoma), -0.0505.

As to `COc1nnc2ccc(N3CCC(c4ccc(OCCN5CCN(C)C(=O)[C@H]5C)cc4)CC3)nn12` [AZD5153] + CN(CC[C@H](CSC1=CC=CC=C1)NC2=C(C=C(C=C2)S(=O)(=O)NC(=O)C3=CC=C(C=C3)N4CCC(CC4)[C@H](C5=CC=CC=C5C6=CC=C(C=C6)Cl)O)S(=O)(=O)C(F)(F)F)CCO [AZD4320] (first compound max 1 µM, 7x7, partner max 1 µM), the Bliss excess in [8] worked out at 0.036; in experiment [12], 0.0258.

For the compound `Cc1nc(Nc2ncc(C(=O)Nc3c(C)cccc3Cl)s2)cc(N2CCN(CCO)CC2)n1` [Dasatinib] + CC(=O)Nc1cccc(-n2c(=O)n(C3CC3)c(=O)c3c(Nc4ccc(I)cc4F)n(C)c(=O)c(C)c32)c1 [Trametinib] (first compound max 2 µM, 7x7, partner max 1 µM), the “combination Emax” value in experiment [1] is 0.555; in [2], 0.361; with HCC70 (Breast Carcinoma) [3], 0.288. For the same compound, the Bliss excess in experiment [4] was -0.0483; in [5], -0.0522; in [6], -0.076; in experiment [8] it was -0.0107; in experiment [9], 0.024; in experiment [10] it was -0.0578. Moreover, the Bliss excess in experiment [11] is -0.042; in [12], -0.0487; in experiment [13], -0.0332; in experiment [14] it was -0.0024; in the experiment on EW-7 (Ewing's Sarcoma) it was -0.0074; in the experiment with EB2 (Burkitt's Lymphoma), 0.0027. For the same compound, the Bliss excess is -0.0483 in [15], -0.0217 in the experiment with HCC70 (Breast Carcinoma) [16], -0.0433 in the experiment with PEO1 (Ovarian Carcinoma) and 0.0003 in the experiment with WM1552C (Melanoma).

In the case of `CC(=O)c1c(C)c2cnc(Nc3ccc(N4CCNCC4)cn3)nc2n(C2CCCC2)c1=O` [Palbociclib] + CN(CC[C@H](CSC1=CC=CC=C1)NC2=C(C=C(C=C2)S(=O)(=O)NC(=O)C3=CC=C(C=C3)N4CCC(CC4)[C@H](C5=CC=CC=C5C6=CC=C(C=C6)Cl)O)S(=O)(=O)C(F)(F)F)CCO [AZD4320] (first compound max 10 µM, 7x7, partner max 1 µM), the Bliss excess in experiment [8] is -0.0622; in [12] it was 0.0028.

In the case of `N#Cc1cnc(Nc2cc(NC[C@H]3CNCCO3)c(C(F)(F)F)cn2)cn1` [SRA737] + Nc1ccn([C@@H]2O[C@H](CO)[C@@H](O)C2(F)F)c(=O)n1 [Gemcitabine] (first compound max 10 µM, 7x7, partner max 0.3 µM), the “combination Emax” value in [1] is 0.78; in [2], 0.734; in the experiment on HCC70 (Breast Carcinoma) [3] it was 0.823. For the same compound, the Bliss excess in [4] was 0.008; in [5] it was -0.0155; in [6], -0.0087; in [7], -0.054; in experiment [8], 0.058; in experiment [9], -0.0336. Further, the Bliss excess in experiment [10] was -0.0663; in experiment [11], 0.0124; in experiment [12] it was 0.0613; in experiment [13], 0.0226; in experiment [14] it was 0.0059; in the experiment on EW-7 (Ewing's Sarcoma), 0.0349. The Bliss excess in the experiment on EB2 (Burkitt's Lymphoma) is -0.025; in experiment [15], -0.012; in the experiment on PEO1 (Ovarian Carcinoma), 0.113; in the experiment on WM1552C (Melanoma), -0.0206.

On to `C[C@@H](c1ccc2nccn2c1)n1nnc2ncc(-c3cnn(C)c3)nc21` [Savolitinib] + CN(CC[C@H](CSC1=CC=CC=C1)NC2=C(C=C(C=C2)S(=O)(=O)NC(=O)C3=CC=C(C=C3)N4CCC(CC4)[C@H](C5=CC=CC=C5C6=CC=C(C=C6)Cl)O)S(=O)(=O)C(F)(F)F)CCO [AZD4320] (first compound max 1 µM, 7x7, partner max 1 µM), for which the Bliss excess in experiment [8] was -0.0642; in experiment [12], -0.0154.
